Measured values taken from PubChem BioAssay AID274 (DTP/NCI, 2004).
Values joined by “and” are separate entries in the source; they are usually repeats but may differ in a detail not shown here. Equal values may be shown once. Inconclusive results and toxic doses are left out. Rule for the calls: active = survival T/C of 150% or more; inactive = T/C below 125% in these data. Numbered stars: 1 amine (or outer) side, 2 acyl side, 3 side chain; on linkers, the order of the positions; unused ones are H or OH. Bridge positions count the residues as written; N and C are the ends. Square brackets hold non-standard residues; d marks the D form. Peptide text beside a SMILES is read from it. I, II: the chains in the order shown. Actinocin(1to9) = Cc1c2oc3c(C)ccc(C(=O)[*:2])c3nc-2c(C(=O)[*:1])c(N)c1=O; NMeV = CN[CH](C(=O)O)C(C)C; Aze = O=C(O)[CH]1CCN1; Sar = CNCC(=O)O

Test system: BDF1 mice, Lewis lung carcinoma iv, survival T/C
Test: NCI In Vivo Anticancer Drug Screen. Data for tumor model Lewis Lung Carcinoma (intravenous) in B6D2F1 (BDF1) mice
Conditions: endpoint: median survival time, higher = longer survival
Method: The antitumor activity of compounds was measured in mice bearing transplantable tumors. Survival or tumor size were measured and the results are expressed as the measurement made in the treated group (T) divided by the measurement made in the vehicle treated control group (C). The tumor model used in this assay is Lewis Lung Carcinoma (intravenous) in B6D2F1 (BDF1) mice

[1] = dose: 25.0 mg/kg/injection, schedule: Q01DX009 (ip), vehicle: saline with Tween-80
[2] = dose: 50.0 mg/kg/injection, schedule: Q01DX009 (ip), vehicle: saline with Tween-80
[3] = dose: 100.0 mg/kg/injection, schedule: Q01DX009 (ip), vehicle: saline with Tween-80
[4] = dose: 200.0 mg/kg/injection, schedule: Q01DX009 (ip), vehicle: saline with Tween-80
[5] = dose: 6.25 mg/kg/injection, schedule: Q01DX009 (ip), vehicle: saline with Tween-80
[6] = dose: 12.5 mg/kg/injection, schedule: Q01DX009 (ip), vehicle: saline with Tween-80
[7] = dose: 0.78 mg/kg/injection, schedule: Q01DX009 (ip), vehicle: saline
[8] = dose: 1.56 mg/kg/injection, schedule: Q01DX009 (ip), vehicle: saline
[9] = dose: 12.5 mg/kg/injection, schedule: Q01DX009 (ip), vehicle: Klucel (hydroxypropylcellulose) (HPC)
[10] = dose: 25.0 mg/kg/injection, schedule: Q01DX009 (ip), vehicle: Klucel (hydroxypropylcellulose) (HPC)
[11] = dose: 50.0 mg/kg/injection, schedule: Q01DX009 (ip), vehicle: Klucel (hydroxypropylcellulose) (HPC)

Measured: T/C

Cc1c2oc3c(C)ccc(C(=O)NC4C(=O)NC(C(C)C)C(=O)N5CCCC5C(=O)N(C)CC(=O)N(C)C(C(C)C)C(=O)OC4C)c3nc-2c(C(=O)NC2C(=O)NC(C(C)C)C(=O)N3CCC3C(=O)N(C)CC(=O)N(C)C(C(C)C)C(=O)OC2C)c(N)c1=O (centres undefined) (I: TV[Aze][Sar][NMeV] / II: TVP[Sar][NMeV]; ester I:1-I:C, II:1-II:C; linker I:N-II:N via Actinocin(1to9); configuration not given here)
inactive: dose: 37.5 micrograms/kg/injection, schedule: Q01DX009 (ip), vehicle: saline + alcohol 105 % of control | dose: 75.0 micrograms/kg/injection, schedule: Q01DX009 (ip), vehicle: saline + alcohol 113 % of control | dose: 194.0 micrograms/kg/injection, schedule: Q04DX003 (ip), vehicle: saline + alcohol 92 % of control | dose: 270.0 micrograms/kg/injection, schedule: Q04DX003 (ip), vehicle: saline + alcohol 95 % of control | dose: 324.0 micrograms/kg/injection, schedule: Q04DX003 (ip), vehicle: saline + alcohol 105 % of control | dose: 450.0 micrograms/kg/injection, schedule: Q04DX003 (ip), vehicle: saline + alcohol 104 % of control | dose: 540.0 micrograms/kg/injection, schedule: Q04DX003 (ip), vehicle: saline + alcohol 105 % of control | dose: 648.0 micrograms/kg/injection, schedule: Q01DX001 (ip), vehicle: saline + alcohol 94 % of control | dose: 1080.0 micrograms/kg/injection, schedule: Q01DX001 (ip), vehicle: saline + alcohol 94 % of control

CC(=O)N(C)O
inactive: [1] 102 % of control | [2] 90 % of control | [3] 98 % of control | [4] 95 % of control

Cc1ccc2c(c1)C(=O)N(CC[P+](c1ccccc1)(c1ccccc1)c1ccccc1)C2=O
inactive: dose: 0.78 mg/kg/injection, schedule: Q09DX009 (ip), vehicle: water 98 % of control | dose: 1.56 mg/kg/injection, schedule: Q09DX009 (ip), vehicle: water 89 % of control | dose: 3.12 mg/kg/injection, schedule: Q09DX009 (ip), vehicle: water 89 % of control | dose: 6.25 mg/kg/injection, schedule: Q09DX009 (ip), vehicle: water 87 % of control | dose: 12.5 mg/kg/injection, schedule: Q09DX009 (ip), vehicle: water 97 % of control

CC1(CO)C(O)CCC2(C)C1CCC1CC3CC12CCC3(O)CO (centres undefined)
inactive: [5] 87 % of control | [6] 97 % of control | [1] 110 % of control | [4] 106 % of control

N=[N+]=CC(=O)OCC(N)C(=O)O (centres undefined)
inactive: [7] 98 % of control | [8] 103 % of control | dose: 3.12 mg/kg/injection, schedule: Q01DX009 (ip), vehicle: saline 100 % of control | dose: 6.25 mg/kg/injection, schedule: Q01DX009 (ip), vehicle: saline 104 % of control | dose: 12.5 mg/kg/injection, schedule: Q01DX009 (ip), vehicle: saline 117 % of control

C[C@H](CCC(=O)O)[C@H]1CC[C@H]2[C@@H]3[C@H](O)C[C@@H]4C[C@H](O)CC[C@]4(C)[C@H]3C[C@H](O)[C@]12C (tested in a mixture with another compound)
inactive: [2] 109 % of control | [3] 108 % of control | [4] 121 % of control

Cc1c2ccncc2c(C)c2c1[nH]c1ccccc12
inactive: dose: 6.25 mg/kg/injection, schedule: Q01DX009 (ip), vehicle: Klucel (hydroxypropylcellulose) (HPC) 111 % of control | [9] 93 % of control | [10] 105 % of control

CCN(CC)CCOCCO
inactive: dose: 25.0 mg/kg/injection, schedule: Q01DX009 (ip), vehicle: saline 110 % of control | dose: 50.0 mg/kg/injection, schedule: Q01DX009 (ip), vehicle: saline 99 % of control | dose: 100.0 mg/kg/injection, schedule: Q01DX009 (ip), vehicle: saline 101 % of control | dose: 200.0 mg/kg/injection, schedule: Q01DX009 (ip), vehicle: saline 99 % of control

CCCCc1ccc2nc(NC(=O)OC)[nH]c2c1
inactive: [5] 94 % of control | [6] 92 % of control | [1] 103 % of control | [2] 102 % of control | [3] 107 % of control

Clc1ccc(C2SC=Cc3ccccc32)cc1 (centres undefined)
inactive: [9] 94 % of control | [10] 105 % of control | [11] 108 % of control | dose: 100.0 mg/kg/injection, schedule: Q01DX009 (ip), vehicle: Klucel (hydroxypropylcellulose) (HPC) 108 % of control | dose: 200.0 mg/kg/injection, schedule: Q01DX009 (ip), vehicle: Klucel (hydroxypropylcellulose) (HPC) 115 % of control | dose: 400.0 mg/kg/injection, schedule: Q01DX009 (ip), vehicle: Klucel (hydroxypropylcellulose) (HPC) 108 % of control

O=C1c2ccccc2C(=O)c2c(NCCNCCO)ccc(NCCNCCO)c21
inactive: dose: 1.0 mg/kg/injection, schedule: Q01DX005 (ip), vehicle: saline with Tween-80 119 % of control | dose: 1.0 mg/kg/injection, schedule: Q01DX009 (ip), vehicle: saline with Tween-80 100 % of control | dose: 2.0 mg/kg/injection, schedule: Q01DX005 (ip), vehicle: saline 102 % of control | dose: 2.0 mg/kg/injection, schedule: Q01DX009 (ip), vehicle: saline with Tween-80 110 % of control | dose: 4.0 mg/kg/injection, schedule: Q01DX005 (ip), vehicle: saline with Tween-80 109 % of control | dose: 4.0 mg/kg/injection, schedule: Q01DX009 (ip), vehicle: saline with Tween-80 102 % of control

CC(=O)O[C@H]1C(=O)[C@@]2(C)[C@H]([C@H](OC(=O)c3ccccc3)[C@]3(O)C[C@H](OC(=O)[C@H](O)[C@@H](NC(=O)c4ccccc4)c4ccccc4)C(C)=C1C3(C)C)[C@]1(OC(C)=O)CO[C@@H]1C[C@@H]2O
inactive: dose: 25.9 mg/kg/injection, schedule: Q04DX003 (ip), vehicle: Klucel (hydroxypropylcellulose) (HPC) 93 % of control | dose: 43.2 mg/kg/injection, schedule: Q04DX003 (ip), vehicle: Klucel (hydroxypropylcellulose) (HPC) 86 % of control

O=C1C(=O)c2ccccc2C(O)=C1CC=C(Cl)Cl
inactive: [9] 104 % of control | [10] 93 % of control | [11] 91 % of control

[Cl][Hg][Cl]
inactive: dose: 0.2 mg/kg/injection, schedule: Q01DX009 (ip), vehicle: saline 95 % of control | dose: 0.4 mg/kg/injection, schedule: Q01DX009 (ip), vehicle: saline 99 % of control | [7] 93 % of control | [8] 93 % of control

Clc1cc(Cl)nc(N2CC2)n1
inactive: dose: 1.25 mg/kg/injection, schedule: Q01DX009 (ip), vehicle: saline 91 % of control | dose: 2.5 mg/kg/injection, schedule: Q01DX009 (ip), vehicle: saline 103 % of control | dose: 5.0 mg/kg/injection, schedule: Q01DX009 (ip), vehicle: saline with Tween-80 114 % of control | dose: 5.0 mg/kg/injection, schedule: Q01DX009 (ip), vehicle: saline 103 % of control

COc1cccc2c1C(=O)c1c(O)c3c(c(O)c1C2=O)C[C@@](O)(/C(C)=N\O)C[C@@H]3OC1CC(N)C(O)C(C)O1 (some centres undefined)
inactive: dose: 3.13 mg/kg/injection, schedule: Q01DX009 (ip), vehicle: water 108 % of control | dose: 6.25 mg/kg/injection, schedule: Q01DX009 (ip), vehicle: water 99 % of control | dose: 12.5 mg/kg/injection, schedule: Q01DX009 (ip), vehicle: water 114 % of control

[N-]=[N+]=CC(=O)CCC(N)C(=O)O (centres undefined)
inactive: dose: 0.01 mg/kg/injection, schedule: Q01DX009 (ip), vehicle: saline 95 % of control | dose: 0.02 mg/kg/injection, schedule: Q01DX009 (ip), vehicle: saline 98 % of control | dose: 0.05 mg/kg/injection, schedule: Q01DX009 (ip), vehicle: saline 108 % of control | dose: 0.1 mg/kg/injection, schedule: Q01DX009 (ip), vehicle: saline 109 % of control and 111 % of control
